The text below walks through data of patent publication US11680082B2, “Conjugates of montelukast and peptides” (ENLITISA (SHANGHAI) PHARMACEUTICAL CO., LTD, priority 2018, dated 2023).

Structures can show the parent of a compound that is named as a salt. Non-standard residues stand in square brackets, D forms with d. Residues, ends and D or L forms follow the SMILES beside them. No end group written: not given here. *: point of attachment. X2 = CC(C)(O)c1ccccc1CC[C@@H](SCC1(CC(=O)*)CC1)c1cccc(/C=C/c2ccc3ccc(Cl)cc3n2)c1; Dopa = N[C@@H](Cc1ccc(O)c(O)c1)C(=O)O; Hyp = O=C(O)[C@@H]1C[C@@H](O)CN1

One assay deals with T1, CysLTR1 (Homo sapiens, UniProt Q9Y271).
T1 construct: expressed in transfected cells; host or cells: HEK293
T1 sequence (Q9Y271 1-337): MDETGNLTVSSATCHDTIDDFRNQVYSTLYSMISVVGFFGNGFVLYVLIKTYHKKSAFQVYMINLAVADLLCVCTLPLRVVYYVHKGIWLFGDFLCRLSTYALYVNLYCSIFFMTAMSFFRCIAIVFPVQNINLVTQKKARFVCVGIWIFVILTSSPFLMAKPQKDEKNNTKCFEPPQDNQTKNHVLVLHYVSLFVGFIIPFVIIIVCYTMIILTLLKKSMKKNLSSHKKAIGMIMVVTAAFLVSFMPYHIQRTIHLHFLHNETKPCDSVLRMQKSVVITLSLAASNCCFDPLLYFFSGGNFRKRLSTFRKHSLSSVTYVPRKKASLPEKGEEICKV
The assay is described as follows: In vitro CysLTR1 FLIPR antagonist test. The format is cell-based. The settings on record: CYSLTR1/HEK293 cell line, Fluo-4 calcium assay.

Assay [1] has as its system full thickness skin wound. Kind of assay: Acute wound model I. The format is in vivo, C57BL/6 mice. The note with it: lower dose, Day 4. As for the experimental part:
6-8 weeks old male C57BL/6 mice were supplied by Changzhou Cvens Experimental Animal Co. Ltd. Prior to any experiments being conducted, mice were housed under standardized conditions (at a constant temperature or 22±2° C., with alternating 12 hour periods of light and darkness), and were fed on a standard mouse diet with water, for about a week.
General anesthesia was induced using intraperitoneal 3% chloral hydrate (Sinopharm Chemical Reagent Co., Ltd.; 1 mL/10 g of body weight). The hair on the back was shaved by a baby hair shaver and depilated with cream. The skin area was wiped and sterilized with 75% alcohol twice.
EMS skin biopsy punch (Electron Microscopy Sciences, P.O. Box 550, 1560 Industry Road, Hatfield, Pa. 19440) with an 18 mm diameter was used to make a round wound on the midline of the back. Full thickness skin was removed, and the depth reached the fascia. The wounds left open without suture.
Different drugs were administrated topically at 50 μL/wound, once daily from Day 0 to Day 7. The model group was given same amount of normal saline.
Compound B was obtained as a powder from GL Biochem, and was prepared as described in Example 2 above). Ala-Lys-Pro-Ser-Tyr-Hyp-Hyp-Thr-DOPA-Lys (Compound 2; SEQ ID No: 4) was obtained as a powder from GL Biochem, and was prepared essentially as described in Example 2 above, but without coupling montelukast at the end. […]

Assay [2] has as its system full thickness skin wound. The assay is described as follows: Acute wound model II. The settings on record: topical once daily Day 0 to Day 7. The class given is in vivo, C57BL/6 mice. As for the experimental part:
A similar experiment with essentially the same protocol to that described in Example 6 above was carried out on 6 to 8 week-old male C57BL/6 mice, EMS skin biopsy punch with a 12 mm diameter was used to make two round wounds on the midline of the back. The two circles were tangential to each other and the skin between the circles was cut along the upper and lower tangents. Scissors were used to trim the wound. The wound was an oval shape. […] The model group was given same amount of normal saline. [table]

In assay [3] the test system is xylene induced ear swelling. The settings on record: hydrogel 0.5 mg/g, 40 μL on right ear. As for the experimental part: Essentially the same protocol to that described in Example 5 above was carried out on 15 healthy male BALB/c mice, using Compounds J (see Example 40 above) as test compound. The mice were randomly divided into 3 groups as described in Table 20 below, with 5 mice in each group.
All excipients were obtained from Sinopharm Chemical Reagent Co. Ltd. The gel was made up with water for injection.
Dexamethasone acetate cream (DEX cream; 5 mg of dexamethasone in 10 g of cream; Fuyuan Pharmaceutical Co. Ltd., Anhui, China) was used as a positive control. 40 μL of the various treatments drugs were applied to the right ear of each group.

Assay [4] has as its system bleomycin-induced lung fibrosis. Kind of assay: Idiopathic pulmonary fibrosis (IPF) model in rats (bleomycin). The note with it: score, 28 days. The class given is in vivo, SD rats. The protocol: 60 adult SD rats (30 male, 30 female) were purchased from Zhejiang Experimental Animal Center, China. Animals were housed at between 21 and 26° C. and at between 40 and 70% relative humidity with free access to food and water.
The rats were anaesthetized and placed on an operating table in the supine position, to expose the trachea. Bleomycin (5 mg/kg, Bleomycin Hydrochloride for Injection, Haizheng Pfizer Pharmaceutical Co., Ltd.) and saline solution were injected into the trachea through the gap between the tracheal cartilage rings.
The sham-operation group was given an equal volume of normal saline instead of bleomycin. The rats were lifted vertically immediately after administration and were rotated to allow bleomycin to evenly disperse. […]
After 28 days of administration, rats were anesthetized by intraperitoneal injection of chloral hydrate and then sacrificed. […] The lung wet weight was weighed, and the lung coefficient was calculated (lung wet weight/rat weight×1000) and are shown in Table 18 below. […]
The fixed lung tissue was embedded in paraffin and sequential 4 μm sections were stained with haematoxylin-eosin (HE) and modified Masson's trichrome. Fibrotic lung injury was assessed morphologically by semiquantitative parameters. All morphological changes were scored according to the severity of damages. […] No lesion was scored as 0. […]

A further assay has as its system ammonia induced cough. Kind of assay: Antitussive experiment, ammonia induced cough method. The format is in vivo, mice. The settings on record: 10 mg/kg intragastric. The protocol: 60 mice were randomly divided into 5 groups according to their body weight: CMC-Na negative control group, dextromethorphan hydrobromide positive control group and high, medium and low doses (of Compound A, Example 1) groups. Each group contained 12 mice, 6 males and 6 females.
The test drug was administered via atomization inhalation (0.15 mL/min) for 1 min, once daily for 5 days. The positive control drug was administered once daily by intragastric administration at 10 mg/kg for 5 days.
The mice were placed in an inverted beaker 1, 2, and 4 hours after the last drug administration (either Compound A or the positive control drug). 1 mL of aqueous ammonia (25.0 to 28.0%) was placed on top of a boiling water bath and was evaporated into the beaker. The mice were stimulated by ammonia vapor for a predetermined time of 63.1, 50.1, 39.8, 31.6, 25.1, 20.0, 15.9 or 12.6 seconds. The difference in the logarithm of two adjacent stimulating times was set at 0.1, and being 1.8, 1.7, 1.6, 1.5, 1.4, 1.3, 1.2 and 1.1. The mice were then quickly moved to a bell jar. The number of coughs within 1 minute was detected with a stethoscope. Typical coughs occurring three or more times in one minute are called ‘cough’ and those occurring less than three times in one minute are ‘cough free’.
The ammonia stimulation time for the next mouse was determined according to the principle of the sequential method, i.e. if the first mouse was ‘coughing’, the next mouse was stimulated for a shorter period of time. Conversely, if the first mouse was ‘coughless’, the next mouse was stimulated for a longer period of time.
The EDT50 was defined as the ammonia stimulating time at which half mice developed a “cough” and calculated by the equation: EDT50=lg^−1c/n (c equals the […], r is the number of animals in each stimulating time group, x is the logarithm of stimulation time and n was the number of animals in each group).
Where R1=(EDT50 in treatment group/EDT50 in control group)×100%, R>130% indicates an antitussive effect. R>150% indicates a strong antitussive effect.

Protocol for CysLTR1: 10 different concentrations were tested in duplicate for each compound.
A CYSLTR1/HEK293 cell line was used. The cells were prepared and 20 μL of the cell suspension were added to the 384-well plates (20K/well; poly-D-Lysine protein coating plate, Greiner #781946). The plate was placed at 37° C. in a 5% CO2 incubator overnight.
A probenecid in FLIPR assay buffer was prepared from the relevant starter pack (Cat. no. F10471): A 250 mM stock solution of water-soluble probenecid was prepared by adding 1 mL of Fluo-4 Direct™ calcium assay buffer to 77 mg vials containing probenecid (Component B for Cat. nos. F10471). 10 mL of Fluo-4 Direct™ calcium assay buffer and 200 μL of the 250 mM probenecid stock solution was added to one bottle of Fluo-4 Direct™ calcium reagent (Component A). This 2× Fluo-4 Direct™ calcium reagent loading solution was sufficient for two microplates. The solution was vortexed allowed to sit for 5 minutes (protected from light), to ensure that the reagent was completely dissolved. The reagent was prepared fresh each day
All of the compounds were dissolved and serially diluted in Fluo-4 Direct™ calcium assay buffer (without probenecid). […] Fluorescence was measured using the instrument settings appropriate for excitation at 494 nm and emission at 516 nm.
The data were analysed using Prism (GraphPad Software, USA) and IC50s calculated for each compound.

By IC50 is commonly meant the midpoint of a concentration-inhibition curve. For the molecule `C[C@H](NC(=O)CC1(CS[C@H](CCc2ccccc2C(C)(C)O)c2cccc(/C=C/c3ccc4ccc(Cl)cc4n3)c2)CC1)C(=O)N[C@@H](CCCCN)C(=O)N1CCC[C@H]1C(=O)N[C@@H](CO)C(=O)N[C@@H](Cc1ccc(O)cc1)C(=O)N1C[C@H](O)C[C@H]1C(=O)N[C@H](C(=O)N[C@@H](Cc1ccc(O)cc1)C(=O)N1C[C@H](O)C[C@H]1C(=O)N[C@@H](CCCCN)C(=O)O)[C@@H](C)O` [Compound G, Montelukast-Ala-Lys-Pro-Ser-Tyr-Hyp-Thr-Tyr-Hyp-Lys] (X2-AKPSY[Hyp]TY[Hyp]K-OH), the IC50 at CysLTR1 (repeat of Example 38) was found to be 99.5 nM.
For the molecule “Ala-Lys-Pro-Ser-Tyr-Hyp-Hyp-Thr-DOPA-Lys (AKPSY[Hyp][Hyp]T[Dopa]K; not fully specified; printed as Ala-Lys-Pro-Ser-Tyr-Hyp-Hyp-Thr-DOPA-Lys) [Compound 2]”, in assay [1], the “Hyp content in wound tissue” value is recorded as “show effects at early stage”.
Consider “Montelukast Styrene-Ala-Lys-Pro-pSer-Tyr-Hyp-Hyp-Thr-Tyr-Lys [Compound C]”, for which the unhealed wound rate entry in assay [2] is recorded as “comparable effects on promoting the wound healing”.
Turning to “Montelukast-Ala-Lys-Pro-Ser-Tyr-Hyp-Hyp-Thr-Tyr-Hyp-Lys [Compound J]”, the “edema caused by acute inflammation (ear swelling)” value in assay [3] is reported as “very good effect on eliminating the edema caused by acute inflammation”.
`Cc1ccc(=O)n(-c2ccccc2)c1` [pirfenidone]: the “Masson evaluation Mean” value in assay [4] (collagen deposition in pulmonary interstitium) stood at 2.50. For the same molecule, the “HE evaluation Mean” value in assay [4] (sum of degree of fibrosis and inflammation) was 5.50.
For the molecule `C=C(C)c1ccccc1CC[C@@H](SCC1(CC(=O)O)CC1)c1cccc(/C=C/c2ccc3ccc(Cl)cc3n2)c1` [montelukast styrene], at CysLTR1 (Example 37), the concentration for half-maximal inhibition (IC50) came to 159 nM.
`COc1ccc2c(c1)[C@]13CCCC[C@@H]1[C@H](C2)N(C)CC3` [positive, dextromethorphan hydrobromide]: the EDT50/s in the assay on ammonia induced cough (1 h after administration) is 50.1 s; in the assay with ammonia induced cough (2 h after administration), 44.7 s; in the assay with ammonia induced cough (4 h after administration), 41.4 s. Further, the R1/% came to 241.7% with ammonia induced cough (1 h after administration), 207.3% with ammonia induced cough (2 h after administration) and 184.8% with ammonia induced cough (4 h after administration).
